Assay results from patent US20090123389A1, “Methods for modulating Th17 cell development in the treatment and prevention of cellulite” (priority 2007, published 2009).

Assays:
[1] = test system: B220+ B cells or CD8+ T cells; assay: B cell and CD8+ T cell proliferation and function; type: cell-based, mouse; conditions: HF 1.25-40 nM titrated
Description: The non-specific effects of HF on B and CD8+ T cells were evaluated. B220+B cells or CD8+ T cells were isolated from the spleen and peripheral lymph nodes of C57B/6 mice. B cell proliferation and IL-6 production was induced by culturing the cells with LPS (0.5 μg/ml) for 4 days. The effects of HF on B cell function was determined by adding titrating amounts of HF (1.25 nM-40 nM) at the time of LPS stimulation. B cell proliferation was monitored by labeling cells with Carboxyfluorescein diacetate, succinimidyl ester (CFSE; 5 μM) prior to LPS stimulation and determining the rate of CFSE dilution after 4 days by flow cytometric analyses. LPS-induced IL-6 production by B cells was determined by intracellular staining on day 4, following PMA+Ionomycin+Brefeldin A re-stimulation as described above. For CD8+ T cell experiments, purified CD8+ T cells were labeled with CFSE as above and the T cells were activated using anti-CD3 (1 μg/ml) and anti-CD28 (1 μg/ml) antibodies. […] CD8+ T cell proliferation was determined by monitoring CFSE dilution on day 3-post activation; CD25 expression was determined by FACS staining on day 2 of culture; differentiation of CD8+ T cells into cytolytic T cells (CTL) was evaluated on day 4 by determining expression of IFNγ and granzyme B following PMA+Ionomycin+Brefeldin A re-stimulation. […]

TSK mouse = conditions: 1 μg HF/mouse IP daily; cited from earlier work
RORγt = RORγt expression (real-time PCR) and RORγt retroviral transduction; type: cell-based, mouse; conditions: 10 nM HF
Description: T cells were harvested at the indicated times following activation, RNA was isolated and quantitative real-time PCR was performed using RORγt-specific primers and taqman probe. RORγt expression was normalized to Gapdh levels, and the data are presented as fold changes relative to naïve T cells.
Infected T cells were expanded and restimulated on day 4 for intracellular staining. MIG- and MIG.RORγt-transduced cells were gated based on GFP fluorescence.
FIG. 16C is a graph depicting the percent of Th17 cells (IL-17^+ IFNγ^−) in cultures of MIG-transduced (black bars) or MIG.RORγt-transduced (white bars) T cells as determined by intracellular cytokine staining were normalized to DMSO-treated cultures. The data are presented as mean values±SD on duplicate samples. […]
Quantitative real-time PCR: T cells were activated as described above, collected at the indicated times and pellets were flash-frozen in liquid nitrogen. […] RORγt expression was determined after reverse transcription using the message sensor kit (Ambion, Austin, Tex.) per manufacturers instructions and taqman primers and probe as described elsewhere (I. Ivanov, et al., Cell 126, 1121, 2006). Sybrgreen quantitative real-time PCR was performed on T cell RNA samples following reverse transcription via SuperScript II first-strand cDNA synthesis kit (Invitrogen, Carlsbad, Calif.). […]

O=C(CC1NCCCC1O)Cn1cnc2cc(Br)c(Cl)cc2c1=O (racemic) [HF, 7-bromo-6-chloro-3-[3-(3-hydroxy-2-piperidinyl)-2-oxopropyl]-4(3H)-quinazolinone]
doses at which B and CD8+ T cell proliferation and function were profoundly impaired [1]: greater than 20 nM | doses with little or no effect on B and CD8+ T cell function or proliferation [1]: lower than 10 nM | normal skin thickness (TSK mouse): did not reduce | skin thickness of TSK mouse (TSK mouse): reduced skin thickness of a TSK mouse to that of a normal mouse | toxic effects in TSK model (TSK mouse): no toxic effects | upregulation of RORγt or RORγ during Th17 differentiation (RORγt): did not interfere
